Results from PubChem BioAssay (NCI).
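Five compound concentrations were applied to cells in 96-well plates for 48 hours; endpoints were derived by simple linear interpolation of the resulting dose-response curve. At the TGI there is no net growth.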

Tests used:
Experiment in all cases: inhibition of tumour cell growth, NCI panel, 48 h
[1] = tested on: TK-10 renal
[2] = tested on: HS 578T breast
[3] = tested on: SK-OV-3 ovarian
[4] = tested on: HOP-62 NSCLC
[5] = tested on: NCI-H522 lung
[6] = tested on: CAKI-1 renal
[7] = tested on: M14 melanoma
[8] = tested on: SW-620 colon
[9] = tested on: PC-3 prostate
[10] = tested on: NCI-H226 lung
[11] = tested on: HOP-92 NSCLC

Row | Structure (SMILES) | TGI [1] | TGI [2] | TGI [3] | TGI [4] | TGI [5] | TGI [6] | TGI [7] | TGI [8] | TGI [9] | TGI [10] | TGI [11]
1 | Cc1ccc(/C(Cl)=C/C=C(C#N)C#N)cc1 | 13.2 µM | 5.58 µM | 26.1 µM | 3.88 µM | 5.17 µM | 14.4 µM | 6.37 µM | 3.71 µM | > 100 µM | 17.2 µM | 
2 | O=C1c2ccccc2C(=O)c2c1cc(S(=O)(=O)O)c(O)c2O | > 100 µM |  | > 100 µM | > 100 µM | > 100 µM | > 100 µM | > 100 µM | > 100 µM |  | > 100 µM | > 100 µM
3 | NCCCCC(NC(=O)C(N)Cc1ccc(O)cn1)C(=O)O (stereo not given) | > 100 µM | > 100 µM |  | > 100 µM | > 100 µM | > 100 µM |  | > 100 µM | > 100 µM | > 100 µM | > 100 µM
4 | CCOC(=O)N(NC(=O)NC(C)C)c1ccccc1 | > 100 µM | > 100 µM | > 100 µM | > 100 µM |  | > 100 µM | > 100 µM | > 100 µM | > 100 µM | > 100 µM | > 100 µM
5 | COc1ccc(C[C@@H](CO)NC2=C(C#N)CCC2)cc1 | > 100 µM | 93 µM | > 100 µM | > 100 µM |  | > 100 µM | > 100 µM | > 100 µM | > 100 µM | > 100 µM | > 100 µM
6 | Oc1c2cc(Cl)cc1COCc1cc(Cl)cc(c1O)COCc1cc(Cl)cc(c1O)COC2 | > 100 µM |  | > 100 µM | > 100 µM |  |  | 64.7 µM | > 100 µM | > 100 µM | > 100 µM | 92.2 µM
7 | CC(C)(C)OC(=O)CN1C(=O)CC1CC(=O)c1ccccc1 (stereo not given) | 93.2 µM | 84.2 µM |  | 34.2 µM | 33.7 µM | 49.4 µM | 30.4 µM | 31.6 µM | 30.9 µM | 43.5 µM | > 100 µM
8 | COc1ccc(C(=O)c2sc(N(C)C)nc2-c2ccccc2)cc1 | > 100 µM | > 100 µM | 71.8 µM | > 100 µM |  |  | > 100 µM | > 100 µM | > 100 µM | > 100 µM | > 100 µM
9 | C[C@]12CC[C@H](OC(=O)Cc3ccc(N(CCCl)CCCl)cc3)CC1=CC[C@@H]1[C@@H]2CC[C@]2(C)C(=O)CC[C@@H]12 | > 100 µM | > 100 µM |  | > 100 µM | > 100 µM | > 100 µM | > 100 µM | > 100 µM | > 100 µM | > 100 µM | > 100 µM
10 | CC(CCC(=O)O)(c1ccc(O)cc1)c1ccc(O)cc1 | > 100 µM | > 100 µM |  | > 100 µM | > 100 µM | > 100 µM | > 100 µM | > 100 µM | > 100 µM | > 100 µM | > 100 µM
11 | Nc1nc(Cl)c(CO)c(NCC2(CO)CC(CCc3ccccc3)C2)n1 (stereo not given) | > 100 µM |  |  | 99.3 µM | 86.3 µM | > 100 µM |  | 54.2 µM | > 100 µM | 36.3 µM | 73.1 µM
12 | COc1ccc(/C=C2\CCC(C)C3C2=NN(c2ccccc2)C3c2ccc(OC)c(OC)c2)cc1OC (stereo not given) | 6.93 µM | > 100 µM | 20.2 µM |  |  | 15.6 µM | 43.3 µM | > 100 µM | 51.6 µM | 12.9 µM | 
13 | CC(C)(C)C(=O)OCOP(=O)(OCOC(=O)C(C)(C)C)OCC1OC(n2ccc(=O)[nH]c2=O)C(N=[N+]=[N-])C1O (stereo not given) | 22.3 µM | 7.64 µM |  | 14.5 µM | 17.5 µM | 22.5 µM | 14.3 µM | 18.2 µM | 14.1 µM | 22 µM | 5 µM
14 | Cc1c(C)c(C)n(C2OC(CO)C(O)C(O)C2O)c(=S)c1C#N (stereo not given) | > 100 µM |  | > 100 µM | > 100 µM | > 100 µM |  | > 100 µM | > 100 µM | > 100 µM | > 100 µM | > 100 µM
15 | O=C(Cn1c2c(c3ccccc31)CCCC2)N1CCCC1 | > 100 µM | 87.2 µM | > 100 µM | > 100 µM |  | > 100 µM | > 100 µM | > 100 µM | > 100 µM |  | > 100 µM
16 | O=S(=O)(O)C1=C2Sc3ccccc3N=C2c2ccccc2C1 | 32.9 µM |  | 44.1 µM | 35 µM | 31.3 µM | 34.7 µM | 25.5 µM | 29.8 µM |  | 35.5 µM | 22 µM
17 | COC(=O)c1cc2c(cc1CC1Cc3cc4c(cc3C1=O)CCC4)CCC2 (stereo not given) | > 100 µM | > 100 µM | > 100 µM | > 100 µM | > 100 µM | > 100 µM | > 100 µM | > 100 µM | > 100 µM | > 100 µM | 
18 | [Cl-].[Rh+3].c1cnc2c(c1)ccc1cccnc12.c1cnc2c(c1)ccc1cccnc12.c1cnc2c(c1)ccc1cccnc12 |  |  | > 100 µM | > 100 µM | > 100 µM |  | 29 µM | > 100 µM |  |  | > 100 µM
19 | O=C(N/N=C/C=C/c1ccccc1)[C@H](O)[C@@H](O)C(=O)N/N=C/C=C/c1ccccc1 | > 100 µM |  |  |  | > 100 µM |  |  | > 100 µM |  |  | 
20 | N#CC1C(=O)N(c2ccccc2)NC12OC(=O)c1ccncc12 (stereo not given) |  |  | > 20 µM |  | > 20 µM | > 20 µM | > 20 µM | > 20 µM | > 20 µM | > 20 µM | > 20 µM
21 | COc1ccccc1NC(=S)Nc1cc(C)cc(C)n1 | > 100 µM | > 100 µM | > 100 µM | > 100 µM |  | > 100 µM | > 100 µM | > 100 µM | > 100 µM | > 100 µM | 
22 | N#CC12CNCC1CN=N2 (stereo not given) | > 100 µM |  |  | > 100 µM | > 100 µM | > 100 µM |  | > 100 µM | > 100 µM | > 100 µM | > 100 µM
23 | CCOC(=O)c1cc2c([nH]1)c(O)cc1c2ccn1Cc1ccccc1 |  | 77.4 µM | 39.5 µM | 38.7 µM |  | 36.8 µM | 47.5 µM | 40.6 µM | 34.2 µM | 36.9 µM | 27.7 µM
24 | COC(=O)CC(c1cn(S(=O)(=O)c2ccc(C)cc2)c2ccccc12)C1C[C@@H](C(=O)OC)N(C(=O)OC(C)(C)C)C1=O (stereo not given in full) | > 100 µM | > 100 µM |  | > 100 µM | > 100 µM | > 100 µM | > 100 µM | > 100 µM | > 100 µM | > 100 µM | 
